According to patent publication US5786335A, “Sulfhydryl containing peptides for treating vascular disease” (Warner-Lambert Company, priority 1996, dated 1998):
Residues, ends and D or L forms follow the SMILES beside them. No end group written: not given here.

Target: Lp(a) formation (coupling between apo(a) and LDL) (Homo sapiens, UniProt P08519)
Assay: in vitro Lp(a) formation assay: coupling of recombinant human apo(a) with LDL, western blot with densitometry or visual inspection
Assay type: biochemical
Set-up: key to Relative Activity: An easily detectable change from control was assigned as (+); a marked change from control was assigned as (++)
Details: for inhibition at 125 µM: 125 μM peptide, densitometry of Lp(a) bands; for inhibition at 125 µM / IC50: 37° C. for 30 minutes; for IC50: western blot, read-out: IC50 (concentration required to inhibit 50% of Lp(a) formation)
Method: As pointed out above, the peptides of this invention are useful for treating vascular diseases due to their ability to inhibit formation of Lp(a). The compounds have been evaluated in an in vitro assay which established that the subject compounds are potent inhibitors of Lp(a) formation. The assay was carried out by mixing approximately equal quantities of recombinant human apo(a) with low-density lipoprotein (LDL) in a […] microcentrifuge tube. Control vessels contained no invention peptide, whereas test vessels contained a peptide of Formula I. The mixtures were incubated at 37° C. for 30 minutes. The coupling between apo(a) and LDL was quenched by addition of sodium dodecylsulfate (SDS)-PAGE loading buffer. The mixture is next resolved on 4% polyacrylamide gels, and Lp(a) is detected by western blotting using a monospecific human Lp(a) antibody. The intensity of the Lp(a) bands on the blots is measured by a commercial densitometer.
Table I below gives the percent inhibition of Lp(a) formation at 125 μM concentration of representative peptides of the invention, as well as the concentration of representative compounds required to inhibit 50% of Lp(a) formation (IC50).
Additional compounds were evaluated in the above assay, and the western blots were visually inspected for changes in Lp(a) particle formation as a consequence of peptide mediated inhibition. Experimental lanes were visually compared to control lanes and assessed as follows: An easily detectable change from control was assigned as (+); a marked change from control was assigned as (++).

Chain of Lp(a) formation (coupling between apo(a) and LDL) (P08519 20-2040): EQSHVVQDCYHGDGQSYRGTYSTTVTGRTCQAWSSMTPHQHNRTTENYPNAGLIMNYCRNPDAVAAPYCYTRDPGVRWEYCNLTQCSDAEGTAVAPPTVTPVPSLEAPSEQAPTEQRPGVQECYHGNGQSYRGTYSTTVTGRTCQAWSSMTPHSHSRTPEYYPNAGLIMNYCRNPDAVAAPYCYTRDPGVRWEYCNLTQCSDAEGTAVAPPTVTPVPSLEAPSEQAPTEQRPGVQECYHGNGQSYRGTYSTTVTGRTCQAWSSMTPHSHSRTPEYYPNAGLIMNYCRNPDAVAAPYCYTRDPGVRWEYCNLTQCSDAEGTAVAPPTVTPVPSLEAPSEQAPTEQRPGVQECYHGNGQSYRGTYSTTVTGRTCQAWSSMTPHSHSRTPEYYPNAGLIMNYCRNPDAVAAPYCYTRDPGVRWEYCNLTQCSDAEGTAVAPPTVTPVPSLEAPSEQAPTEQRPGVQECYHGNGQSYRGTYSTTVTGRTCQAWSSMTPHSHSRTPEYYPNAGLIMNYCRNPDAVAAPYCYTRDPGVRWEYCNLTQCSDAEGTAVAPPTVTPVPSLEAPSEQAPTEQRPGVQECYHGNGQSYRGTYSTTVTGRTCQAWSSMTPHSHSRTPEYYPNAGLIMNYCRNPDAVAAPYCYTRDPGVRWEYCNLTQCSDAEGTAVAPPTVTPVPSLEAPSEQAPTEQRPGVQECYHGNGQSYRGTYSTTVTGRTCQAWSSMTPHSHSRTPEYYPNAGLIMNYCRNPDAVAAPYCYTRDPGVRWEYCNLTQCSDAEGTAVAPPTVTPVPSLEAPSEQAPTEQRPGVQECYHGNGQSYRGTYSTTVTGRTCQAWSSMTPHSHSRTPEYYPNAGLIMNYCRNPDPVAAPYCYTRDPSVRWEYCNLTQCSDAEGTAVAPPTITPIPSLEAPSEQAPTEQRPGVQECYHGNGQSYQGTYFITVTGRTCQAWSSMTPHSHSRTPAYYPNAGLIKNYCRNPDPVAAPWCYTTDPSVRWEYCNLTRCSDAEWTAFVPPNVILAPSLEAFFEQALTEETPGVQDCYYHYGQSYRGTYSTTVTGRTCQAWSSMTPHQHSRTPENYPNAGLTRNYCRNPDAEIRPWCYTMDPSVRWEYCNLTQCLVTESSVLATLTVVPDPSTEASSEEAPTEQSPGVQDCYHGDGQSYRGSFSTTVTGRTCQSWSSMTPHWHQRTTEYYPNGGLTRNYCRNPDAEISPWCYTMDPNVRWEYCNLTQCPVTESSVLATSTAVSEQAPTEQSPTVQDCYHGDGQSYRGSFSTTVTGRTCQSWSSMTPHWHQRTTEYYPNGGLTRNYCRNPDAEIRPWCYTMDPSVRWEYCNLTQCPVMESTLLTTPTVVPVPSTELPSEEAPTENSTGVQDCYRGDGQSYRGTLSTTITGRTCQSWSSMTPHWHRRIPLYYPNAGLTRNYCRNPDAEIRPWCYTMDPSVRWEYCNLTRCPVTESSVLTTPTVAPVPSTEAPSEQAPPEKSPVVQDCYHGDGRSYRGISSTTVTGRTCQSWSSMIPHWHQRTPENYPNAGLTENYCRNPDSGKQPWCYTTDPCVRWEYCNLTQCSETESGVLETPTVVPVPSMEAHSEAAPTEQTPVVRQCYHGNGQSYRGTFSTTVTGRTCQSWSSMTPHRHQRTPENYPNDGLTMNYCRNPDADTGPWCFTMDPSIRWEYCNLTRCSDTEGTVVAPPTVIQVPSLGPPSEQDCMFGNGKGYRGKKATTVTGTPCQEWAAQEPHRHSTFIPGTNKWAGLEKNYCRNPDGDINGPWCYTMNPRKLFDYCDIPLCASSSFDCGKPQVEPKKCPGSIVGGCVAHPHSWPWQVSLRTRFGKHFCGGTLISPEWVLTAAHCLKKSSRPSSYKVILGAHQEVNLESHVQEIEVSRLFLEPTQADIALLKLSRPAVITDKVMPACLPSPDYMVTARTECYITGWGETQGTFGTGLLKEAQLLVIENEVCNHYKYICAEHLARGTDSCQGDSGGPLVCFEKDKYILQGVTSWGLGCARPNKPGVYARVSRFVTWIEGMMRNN

| Relative Activity (western blots visually inspected, experimental lanes compared to control lanes) | inhibition at 125 µM [%] | IC50 [µM] | Compound |
| --- | --- | --- | --- |
| + |  |  | CC(=O)N[C@@H](CS)C(=O)N[C@@H](Cc1ccc(O)cc1)C(=O)N[C@@H](CCCCN)C(N)=O [Ac--Cys--Tyr--Lys--NH2] (Ac-Cys-Tyr-Lys-NH2) |
|  | 90 | 50 | NCCCC[C@H](NC(=O)[C@H](Cc1ccc(O)cc1)NC(=O)[C@@H](N)CS)C(=O)O [Cys--Tyr--Lys] (H-Cys-Tyr-Lys-OH) |
|  | 36.9 |  | AQCYK [Ala--Gln--Cys--Tyr--Lys] |
|  | 29.8 |  | IACYK [Ile--Ala--Cys--Tyr--Lys] |
|  | 76.4 |  | IQCAK [Ile--Gln--Cys--Ala--Lys] |
|  | 50.1 | 109 | IQCYK [Ile--Gln--Cys--Tyr--Lys, Ile-Gln-Cys-Tyr-Lys] |
